Laboratory results from BindingDB's records for patent US20240182487 (Blossomhill Therapeutics, 2024).

Tests used:
Experiment in all cases: Biochemical Assay
[1] = molecular target: Epidermal growth factor receptor (Homo sapiens, UniProt P00533)
Protocol: (§1) Biochemical Assays for Inhibition of Wild-Type and Mutant EGFRs.The inhibitory activities against EGFR WT, EGFR Δ752-759 mutant, EGFR Δ746-750/T790M mutant, EGFR Δ746-750/C797S mutant, EGFR Δ746-750/T790M/C797S mutant. […] Briefly, specific kinase/substrate pairs along with required cofactors were prepared in reaction buffer; 20 mM Hepes pH 7.5, 10 mM MgCl2, 1 mM EGTA, 0.02% Brij35, 0.02 mg/ml BSA, 0.1 mM Na3VO4, 2 mM DTT, 1% DMSO. Compounds were delivered into the reaction, followed 20 minutes later by addition of a mixture of ATP (Sigma, St. Louis MO) and 33P ATP (Perkin Elmer, Waltham MA) to a final concentration of 10 μM. Reactions were carried out at room temperature for 120 min, followed by spotting of the reactions onto P81 ion exchange filter paper (Whatman Inc., Piscataway, NJ). Unbound phosphate was removed by extensive washing of filters in 0.75% phosphoric acid.

[2] = molecular target: Epidermal growth factor receptor [L858R,T790M,C797S] (Homo sapiens, UniProt P00533, C797S/L858R/T790M)
Protocol: as §1

[3] = molecular target: Epidermal growth factor receptor [L858R] (Homo sapiens, UniProt P00533, L858R)
Protocol: as §1

[4] = molecular target: Epidermal growth factor receptor [L858R,C797S] (Human, UniProt P00533, C797S/L858R)
Protocol: as §1

[5] = molecular target: Epidermal growth factor receptor [T790M,L858R] (Homo sapiens, UniProt P00533, L858R/T790M)
Protocol: as §1

Chain of Epidermal growth factor receptor [L858R,C797S] (P00533 25-1210 C797S/L858R limits assumed): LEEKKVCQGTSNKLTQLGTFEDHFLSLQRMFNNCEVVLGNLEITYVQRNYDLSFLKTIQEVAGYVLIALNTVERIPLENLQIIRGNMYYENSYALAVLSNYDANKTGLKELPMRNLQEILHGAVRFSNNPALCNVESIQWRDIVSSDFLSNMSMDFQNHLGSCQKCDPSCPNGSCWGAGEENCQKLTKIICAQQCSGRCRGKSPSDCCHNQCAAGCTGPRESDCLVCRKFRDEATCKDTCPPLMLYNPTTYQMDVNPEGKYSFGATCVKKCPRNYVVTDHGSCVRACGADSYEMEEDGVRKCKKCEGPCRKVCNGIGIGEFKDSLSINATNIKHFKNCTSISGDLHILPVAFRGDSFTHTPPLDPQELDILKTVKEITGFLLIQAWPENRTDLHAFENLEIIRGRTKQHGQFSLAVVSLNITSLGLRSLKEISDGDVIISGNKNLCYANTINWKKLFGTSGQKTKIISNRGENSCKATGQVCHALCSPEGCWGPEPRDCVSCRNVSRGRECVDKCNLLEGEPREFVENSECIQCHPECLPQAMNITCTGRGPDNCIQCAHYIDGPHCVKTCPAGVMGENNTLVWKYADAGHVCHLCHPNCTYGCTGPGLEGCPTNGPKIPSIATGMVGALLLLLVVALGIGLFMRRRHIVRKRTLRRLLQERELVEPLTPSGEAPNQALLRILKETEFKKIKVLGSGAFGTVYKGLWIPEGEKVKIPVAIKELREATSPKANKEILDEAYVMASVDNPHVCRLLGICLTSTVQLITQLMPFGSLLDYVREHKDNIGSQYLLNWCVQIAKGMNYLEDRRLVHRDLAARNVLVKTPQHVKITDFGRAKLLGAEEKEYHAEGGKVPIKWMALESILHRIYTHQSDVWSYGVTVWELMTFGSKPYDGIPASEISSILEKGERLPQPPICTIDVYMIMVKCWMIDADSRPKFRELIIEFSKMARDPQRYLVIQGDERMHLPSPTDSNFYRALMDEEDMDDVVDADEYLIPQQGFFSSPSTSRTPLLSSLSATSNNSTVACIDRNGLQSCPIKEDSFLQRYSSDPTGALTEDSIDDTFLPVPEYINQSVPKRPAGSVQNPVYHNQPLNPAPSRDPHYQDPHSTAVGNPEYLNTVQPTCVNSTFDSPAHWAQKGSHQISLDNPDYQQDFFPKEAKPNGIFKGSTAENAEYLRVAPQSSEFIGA
Chain of Epidermal growth factor receptor [T790M,L858R] (P00533 25-1210 T790M/L858R limits assumed): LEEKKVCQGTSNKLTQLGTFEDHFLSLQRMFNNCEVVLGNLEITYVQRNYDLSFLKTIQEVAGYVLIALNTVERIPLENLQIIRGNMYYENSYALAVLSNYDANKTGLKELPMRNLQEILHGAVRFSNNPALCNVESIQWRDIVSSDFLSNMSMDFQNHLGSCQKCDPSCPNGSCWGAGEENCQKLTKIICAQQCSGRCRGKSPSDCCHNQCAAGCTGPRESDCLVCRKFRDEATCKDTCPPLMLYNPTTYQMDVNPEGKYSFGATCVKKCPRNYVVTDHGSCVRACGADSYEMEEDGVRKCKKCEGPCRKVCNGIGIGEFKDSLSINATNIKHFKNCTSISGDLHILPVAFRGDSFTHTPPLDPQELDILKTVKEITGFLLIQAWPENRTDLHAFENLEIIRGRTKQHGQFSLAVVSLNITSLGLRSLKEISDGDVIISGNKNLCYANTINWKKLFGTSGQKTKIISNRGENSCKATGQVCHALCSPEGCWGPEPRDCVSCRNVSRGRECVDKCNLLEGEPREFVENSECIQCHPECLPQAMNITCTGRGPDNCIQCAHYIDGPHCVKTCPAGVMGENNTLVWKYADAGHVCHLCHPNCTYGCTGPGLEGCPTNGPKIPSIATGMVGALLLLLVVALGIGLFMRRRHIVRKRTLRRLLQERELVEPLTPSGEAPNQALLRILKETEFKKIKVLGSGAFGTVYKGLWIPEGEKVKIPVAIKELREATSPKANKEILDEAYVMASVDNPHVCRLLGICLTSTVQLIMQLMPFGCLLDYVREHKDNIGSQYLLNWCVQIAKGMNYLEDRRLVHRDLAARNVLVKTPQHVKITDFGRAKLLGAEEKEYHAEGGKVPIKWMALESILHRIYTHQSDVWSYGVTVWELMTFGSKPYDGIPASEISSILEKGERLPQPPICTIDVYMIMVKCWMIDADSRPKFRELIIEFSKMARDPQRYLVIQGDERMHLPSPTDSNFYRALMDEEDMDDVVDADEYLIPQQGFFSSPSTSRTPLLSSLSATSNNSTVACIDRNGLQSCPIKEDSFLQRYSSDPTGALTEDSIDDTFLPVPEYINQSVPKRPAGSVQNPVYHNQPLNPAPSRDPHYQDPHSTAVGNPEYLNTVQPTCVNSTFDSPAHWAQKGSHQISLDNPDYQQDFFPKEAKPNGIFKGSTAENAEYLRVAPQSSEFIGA
Chain of Epidermal growth factor receptor [L858R,T790M,C797S] (P00533 25-1210 T790M/C797S/L858R limits assumed): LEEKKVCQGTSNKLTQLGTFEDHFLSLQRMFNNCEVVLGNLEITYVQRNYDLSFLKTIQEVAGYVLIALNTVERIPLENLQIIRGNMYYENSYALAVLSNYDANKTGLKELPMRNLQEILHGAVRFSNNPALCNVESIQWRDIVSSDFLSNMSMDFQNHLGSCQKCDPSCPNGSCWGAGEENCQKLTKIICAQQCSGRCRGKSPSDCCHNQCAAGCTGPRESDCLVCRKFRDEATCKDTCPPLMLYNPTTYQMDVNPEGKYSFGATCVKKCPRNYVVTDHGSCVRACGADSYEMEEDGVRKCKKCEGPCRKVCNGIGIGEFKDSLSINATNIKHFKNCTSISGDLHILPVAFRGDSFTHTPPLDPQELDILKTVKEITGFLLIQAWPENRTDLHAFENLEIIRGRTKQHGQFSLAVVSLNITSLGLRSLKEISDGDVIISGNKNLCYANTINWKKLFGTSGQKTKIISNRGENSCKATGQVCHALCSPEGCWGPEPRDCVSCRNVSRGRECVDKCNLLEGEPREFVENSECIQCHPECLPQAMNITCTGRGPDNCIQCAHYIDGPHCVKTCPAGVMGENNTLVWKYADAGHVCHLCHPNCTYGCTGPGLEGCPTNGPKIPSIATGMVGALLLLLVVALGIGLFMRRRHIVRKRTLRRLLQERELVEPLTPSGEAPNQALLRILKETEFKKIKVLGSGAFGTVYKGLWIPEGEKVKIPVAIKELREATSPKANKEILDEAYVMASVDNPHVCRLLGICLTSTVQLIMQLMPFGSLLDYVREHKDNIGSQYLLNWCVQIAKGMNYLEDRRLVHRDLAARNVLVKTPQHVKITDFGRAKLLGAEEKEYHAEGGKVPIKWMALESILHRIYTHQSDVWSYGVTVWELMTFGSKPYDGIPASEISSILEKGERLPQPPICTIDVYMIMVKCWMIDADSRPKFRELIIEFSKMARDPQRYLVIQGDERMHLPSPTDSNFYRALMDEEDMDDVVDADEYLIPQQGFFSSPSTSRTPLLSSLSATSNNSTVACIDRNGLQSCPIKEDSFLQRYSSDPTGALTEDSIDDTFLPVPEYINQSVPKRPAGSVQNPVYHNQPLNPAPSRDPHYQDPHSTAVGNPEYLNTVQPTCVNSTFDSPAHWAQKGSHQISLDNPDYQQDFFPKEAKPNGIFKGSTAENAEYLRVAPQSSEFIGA
Chain of Epidermal growth factor receptor (P00533 whole entry): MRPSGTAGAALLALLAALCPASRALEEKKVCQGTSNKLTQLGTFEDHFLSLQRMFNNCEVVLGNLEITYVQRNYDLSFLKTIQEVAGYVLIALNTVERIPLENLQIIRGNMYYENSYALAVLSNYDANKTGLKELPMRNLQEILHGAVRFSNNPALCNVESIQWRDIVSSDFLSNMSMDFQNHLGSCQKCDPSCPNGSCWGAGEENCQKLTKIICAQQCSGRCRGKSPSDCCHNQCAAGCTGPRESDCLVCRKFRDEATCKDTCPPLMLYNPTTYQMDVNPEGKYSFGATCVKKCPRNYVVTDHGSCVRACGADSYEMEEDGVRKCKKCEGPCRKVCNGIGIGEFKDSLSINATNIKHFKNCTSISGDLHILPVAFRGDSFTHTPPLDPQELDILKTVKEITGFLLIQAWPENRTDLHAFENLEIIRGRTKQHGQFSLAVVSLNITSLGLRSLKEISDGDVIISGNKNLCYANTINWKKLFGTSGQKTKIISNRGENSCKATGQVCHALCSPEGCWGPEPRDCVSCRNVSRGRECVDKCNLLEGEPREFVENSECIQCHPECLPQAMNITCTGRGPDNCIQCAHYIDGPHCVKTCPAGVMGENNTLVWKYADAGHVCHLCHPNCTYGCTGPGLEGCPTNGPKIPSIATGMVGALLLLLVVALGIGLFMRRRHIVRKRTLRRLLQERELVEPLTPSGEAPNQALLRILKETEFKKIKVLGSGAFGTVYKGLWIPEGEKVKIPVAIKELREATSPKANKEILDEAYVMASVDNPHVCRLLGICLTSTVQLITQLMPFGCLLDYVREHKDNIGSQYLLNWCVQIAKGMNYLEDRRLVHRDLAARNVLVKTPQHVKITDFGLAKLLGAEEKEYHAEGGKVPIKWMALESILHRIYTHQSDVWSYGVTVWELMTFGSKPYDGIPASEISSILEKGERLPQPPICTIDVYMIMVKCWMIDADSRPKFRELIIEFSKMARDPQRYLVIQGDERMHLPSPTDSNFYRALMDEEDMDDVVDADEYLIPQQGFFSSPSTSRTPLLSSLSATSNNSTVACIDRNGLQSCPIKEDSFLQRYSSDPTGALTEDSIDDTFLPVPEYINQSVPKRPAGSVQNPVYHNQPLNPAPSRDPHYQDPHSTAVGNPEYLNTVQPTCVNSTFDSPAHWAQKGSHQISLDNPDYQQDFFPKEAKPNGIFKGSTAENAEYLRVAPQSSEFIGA

SMILES | IC50 [1] | IC50 [2] | IC50 [3] | IC50 [4] | IC50 [5]
CNC(=O)c1ccc2c(c1)/C=C/c1n[nH]c3cnc(cc13)-c1cnn(C)c1OCCCO2 [US20240182487, Compound 86] | 24.1 nM | 8.8 nM | 4.9 nM |  | 
CN1CC[C@@H](NC(=O)c2ccc3c(c2)OCCOCc2c(cnn2C)-c2cc4c(n[nH]c4cn2)/C=C/3)C1 [US20240182487, Compound 87] | 80.1 nM | 17.2 nM | 16.3 nM |  | 
CN1CCN(C(=O)c2ccc3c(c2)/C=C/c2n[nH]c4cnc(cc24)-c2cnn(C)c2COCCO3)CC1 [US20240182487, Compound 96] | 586 nM | 343 nM | 470 nM |  | 
Cn1ncc2c1COCCOc1ccc(C(=O)O)cc1/C=C/c1n[nH]c3cnc-2cc13 [US20240182487, Compound 92] | 271 nM | 55.5 nM | 66.4 nM |  | 
CN1CCC(NC(=O)c2ccc3c(c2)OCCOCc2c(cnn2C)-c2cc4c(n[nH]c4cn2)/C=C/3)CC1 [US20240182487, Compound 85] | 140 nM | 31 nM | 40.7 nM |  | 
Cc1ccc2c(n1)/C=C/c1n[nH]c3cnc(cc13)-c1cnn(C)c1C(C)OCCO2 (configuration not stated) [US20240182487, Compound 95] | 91.6 nM | 35 nM | 74.9 nM |  | 
CN1CCC(NC(=O)c2ccc3c(c2)/C=C/c2n[nH]c4cnc(cc24)-c2cnn(C)c2OCCCO3)CC1 [US20240182487, Compound 97] | 3.1 nM | 3.4 nM | 4.5 nM |  | 
CN1CC(NC(=O)c2ccc3c(c2)OCCCOc2c(cnn2C)-c2cc4c(n[nH]c4cn2)/C=C/3)C1 [US20240182487, Compound 83] | 11.2 nM | 13.8 nM | 6 nM |  | 
CCc1nn(C)c2c1/C=C/c1n[nH]c3cnc(cc13)-c1cc(F)ccc1OCCN(C)C2=O [US20240182487, Compound 62] | 306 nM | 32.4 nM | 136 nM | 104 nM | 36.3 nM
Cn1ncc2c1COCCOc1ccccc1/C=C/c1n[nH]c3cnc-2nc13 [US20240182487, Compound 16] | 551 nM | 263 nM | 350 nM | 481 nM | 168 nM
Cc1ccc2c(n1)/C=C/c1n[nH]c3cnc(nc13)-c1cnn(C)c1C(C)OCCO2 (configuration not stated) [US20240182487, Compound 65] | 438 nM | 91.2 nM | 140 nM |  | 23.4 nM
CCNC(=O)c1ccc2c(c1)OCCOCc1c(cnn1C)-c1cc3c(n[nH]c3cn1)/C=C/2 [US20240182487, Compound 84] | 884 nM | 160 nM | 433 nM |  | 
CN1CCC(CNC(=O)c2ccc3c(c2)/C=C/c2n[nH]c4cnc(cc24)-c2cnn(C)c2OCCCO3)CC1 [US20240182487, Compound 76] |  | 3.1 nM | 1.2 nM |  | 
COC(=O)c1ccc2c(c1)/C=C/c1n[nH]c3cnc(cc13)-c1cnn(C)c1COCCO2 [US20240182487, Compound 75] | 938 nM | 184 nM | 165 nM |  | 
COC(=O)c1ccc2c(c1)OCCOCc1c(cnn1C)-c1cc3c(n[nH]c3cn1)/C=C/2 [US20240182487, Compound 69] |  | 98.3 nM |  |  | 
CCc1c2c(nn1C)C(=O)N(C)CCOc1c[nH]c(=O)cc1-c1cc3c(n[nH]c3cn1)/C=C/2 [US20240182487, Compound 38] |  | 1130 nM |  |  | 
CN(C)CCNC(=O)c1ccc2c(c1)OCCCOc1c(cnn1C)-c1cc3c(n[nH]c3cn1)/C=C/2 [US20240182487, Compound 74] | 5.7 nM | 8.3 nM | 2.8 nM |  | 
CC(C)NC(=O)c1ccc2c(c1)OCCCOc1c(cnn1C)-c1cc3c(n[nH]c3cn1)/C=C/2 [US20240182487, Compound 77] |  | 172 nM | 57.9 nM |  | 
CN(C)CCNC(=O)c1ccc2c(c1)/C=C/c1n[nH]c3cnc(cc13)-c1cnn(C)c1COCCO2 [US20240182487, Compound 90] | 73.7 nM | 8.6 nM | 22.2 nM |  | 

SMILES | IC50 [1] | IC50 [2] | IC50 [3] | IC50 [4] | IC50 [5]
CN1CCOCCN(c2ccc(F)c(Cl)c2)c2cc3c(n[nH]c3cn2)/C=C/c2cn(C)nc2C1=O [US20240182487, Compound 99] | 33.5 nM |  | 25.5 nM | 50.2 nM | > 10000 nM
CN1CC[C@H](NC(=O)c2ccc3c(c2)OCCCOc2c(cnn2C)-c2cc4c(n[nH]c4cn2)/C=C/3)C1 [US20240182487, Compound 88] | 19.3 nM | 10.3 nM | 4.1 nM |  | 
CCc1c2c(nn1C)C(=O)N(C)CCOc1cnc(OC)cc1-c1cc3c(n[nH]c3cn1)/C=C/2 [US20240182487, Compound 66] |  |  | > 10000 nM |  | 
CN1CCC(NC(=O)c2ccc3c(c2)OCCCOc2c(cnn2C)-c2cc4c(n[nH]c4cn2)/C=C/3)CC1 [US20240182487, Compound 78] | 6.2 nM | 10.6 nM | 2.9 nM |  | 
Cn1ncc2c1OCCCOc1ccc(F)cc1/C=C/c1n[nH]c3cnc-2cc13 [US20240182487, Compound 100] | 176 nM | 27.5 nM | 13.9 nM |  | 
CCc1c2c(nn1C)C(=O)N(C)CCCOc1cnc(OC)cc1-c1cc3c(n[nH]c3cn1)/C=C/2 [US20240182487, Compound 64] |  |  | > 10000 nM |  | 
CN1CC[C@@H](NC(=O)c2ccc3c(c2)OCCCOc2c(cnn2C)-c2cc4c(n[nH]c4cn2)/C=C/3)C1 [US20240182487, Compound 82] | 9.8 nM | 12 nM | 5.4 nM |  | 
CCNC(=O)c1ccc2c(c1)/C=C/c1n[nH]c3cnc(cc13)-c1cnn(C)c1COCCO2 [US20240182487, Compound 89] | 158 nM |  | 32 nM |  | 
Cn1ncc2c1OCCCOc1ccc(C(=O)N3CCCC3)cc1/C=C/c1n[nH]c3cnc-2cc13 [US20240182487, Compound 72] | 48.7 nM | 64.7 nM | 23.7 nM |  | 
Cn1ncc2c1COCCOc1ccccc1/C=C/c1n[nH]c3cnc-2cc13 [US20240182487, Compound 63] | 98.4 nM | 8.8 nM | 50 nM | 61.9 nM | 5.8 nM
Cn1ncc2c1OCCCOc1cc(C(=O)O)ccc1/C=C/c1n[nH]c3cnc-2cc13 [US20240182487, Compound 73] | 88.6 nM | 220 nM | 39 nM |  | 
Cc1nc2cc3c(n[nH]c13)/C=C/c1cc(F)ccc1OCCCOc1c-2cnn1C [US20240182487, Compound 98] | 1240 nM | 192 nM | 1110 nM |  | 
CN(C)CCCNC(=O)c1ccc2c(c1)/C=C/c1n[nH]c3cnc(cc13)-c1cnn(C)c1OCCCO2 [US20240182487, Compound 70] | 5.9 nM | 5.3 nM | 2.2 nM |  | 
CN(C)CCCNC(=O)c1ccc2c(c1)/C=C/c1n[nH]c3cnc(cc13)-c1cnn(C)c1COCCO2 [US20240182487, Compound 91] | 97.2 nM | 10.2 nM | 28.2 nM |  | 
COC(=O)c1ccc2c(c1)/C=C/c1n[nH]c3cnc(cc13)-c1cnn(C)c1OCCCO2 [US20240182487, Compound 68] | 159 nM | 16.6 nM |  |  | 
CN1CCC(CNC(=O)c2ccc3c(c2)/C=C/c2n[nH]c4cnc(cc24)-c2cnn(C)c2COCCO3)CC1 [US20240182487, Compound 94] | 101 nM | 9.9 nM | 9.2 nM |  | 
CN1CCC(NC(=O)c2ccc3c(c2)/C=C/c2n[nH]c4cnc(cc24)-c2cnn(C)c2COCCO3)CC1 [US20240182487, Compound 93] | 55.8 nM | 4.2 nM | 7.2 nM |  | 
COC(=O)c1ccc2c(c1)OCCCOc1c(cnn1C)-c1cc3c(n[nH]c3cn1)/C=C/2 [US20240182487, Compound 67] | 1000 nM | 112 nM | 1720 nM |  | 
